What was measured:
cancer cell cultures [1] = settings: cited from earlier work
[2] = rapid hydrolysis by serum and tissue esterases into alpha-tocopherol; cited from earlier work
cancer cell cultures [3] = assay: Cytostatic or cytotoxic effects on cancer cell cultures; type: cell-based; settings: after hydrolysis of alpha-tocopherol succinate into alpha-tocopherol
Description: (§1) Szarka reviews the strategy of chemoprevention as a possible method of blocking the development of cancers in humans (C F Szarka et al “Chemoprevention of cancer” Curr Probl Cancer 1994 January-February; 18(1):6-79).

[4] = in vivo
Description: as §1

BPH = settings: cited from earlier work
5alpha-reductase = settings: after daily dosing with 5 milligrams; cited from earlier work

factor by which minimal target tissue concentration exceeds the maximum levels possible in oral administration [4]	Structure (SMILES)	concentration necessary to demonstrate cytostatic or cytotoxic effects (cancer cell cultures [1])	levels available systemically after oral administration [2]	reduction in potency relative to alpha-tocopherol succinate (cancer cell cultures [3]) [fold]	side effects in men (BPH; oral administration)	increase in peak urinary flow rates (BPH; two large clinical studies, finasteride treatment) [mls/second]	reduction in serum dihydrotestosterone levels (5alpha-reductase) [%]
–	Cc1c(C)c2c(c(C)c1OC(=O)CCC(=O)O)CC[C@@](C)(CCC[C@H](C)CCC[C@H](C)CCCC(C)C)O2 [alpha-tocopherol succinate]	10 µM	undetectable levels	–	–	–	–
7-10 fold	Cc1c(C)c2c(c(C)c1O)CC[C@@](C)(CCC[C@H](C)CCC[C@H](C)CCCC(C)C)O2 [alpha-tocopherol]	0.5 millimolar	–	50	–	–	–
10-20 fold	O=C1O[C@H]([C@@H](O)CO)C(O)=C1O [ascorbic acid]	1-2 millimolar	–	–	–	–	–
–	CC(C)(C)NC(=O)[C@H]1CC[C@H]2[C@@H]3CC[C@H]4NC(=O)C=C[C@]4(C)[C@H]3CC[C@]12C [finasteride]	–	–	–	erectile dysfunction, decreased volume of ejaculate and loss of libido	~1.6	70

From patent publication US6642274B1, “Methods and compositions for preventing and treating prostate disorders” (priority 1999, dated 2003)
